# Experimental data: BindingDB's records for doi:10.1016/0960-894X(96)00014-5 (1996)
# Assay: Compound was tested for inhibition of chymotrypsin-like protease of proteasome from postmortem human liver and brain
row,SMILES,IC50 [nM]
1,CC(C)CC(NC(=O)C(CCCN=C(N)N[N+](=O)[O-])NC(=O)C(CCCCCCCCC#N)C1CCCC1)B1OC(C)(C)C(C)(C)O1 (stereo not drawn) [Alpha-ketocarbonyl boronic ester derivative],8
2,CC(C)CC(C=O)NC(=O)C(CCCN=C(N)N[N+](=O)[O-])NC(=O)C(CCCCCCCCN1C(=O)c2ccccc2C1=O)C1CCCC1 (stereo not drawn) [Alpha-ketocarbonyl derivative],2
3,CC(C)CC(NC(=O)C(CCCN=C(N)N[N+](=O)[O-])NC(=O)C(CCCCCCCCC#N)C1CCCC1)C(=O)CCl (stereo not drawn) [Alpha-ketocarbonyl derivative],> 1000
